From US20240350488A1, “METHODS OF TREATING SWI/SNF DEREGULATED CANCERS” (Fred Hutchinson Cancer Center, priority 2023, published 2024)

Columns and labels:
[1] = molecular target: T1, EZH2 (Mus musculus, UniProt Q61188); test: H3K27me3 on the Rasgrp1 promoter in Arid1a^fl/fl organoids treated with EZH2 inhibitor; assay type: cell-based; conditions: Arid1a^fl/fl organoids treated with GSK126
T1 construct: endogenous in cells; host or cells: Arid1a^fl/fl mouse urothelial organoids
Method: CUT&Tag was performed following the published protocol, with some modifications. Briefly, cells were harvested and prepared into homogenous suspension in PBS, aliquoted with 10% DMSO and slow-frozen to −80° C. in isopropanol freezing chambers. CUT&Tag was performed with native nuclei. Cells were thawed at 37° C. for 1 minute, washed twice with PBS and centrifugation at 600×g for 3 minutes, and resuspended into ice-cold NE1 buffer (20 mM K-HEPES pH 7.9, 10 mM KCl, […], 20% Glycerol, 0.5 mM spermidine, and EDTA-free protease inhibitor). Cells were kept on ice for 10 minutes, centrifuged at 1400×g for 3 minutes using a swinging-bucket rotor, pellets were resuspended in Wash buffer (20 mM Na-HEPES pH 7.5, 150 mM NaCl, 0.5 mM spermidine, and EDTA-free protease inhibitor), nuclei were counted using Vi-CELL© Cell Viability Analyzer (Beckman Coulter) and aliquoted into 0.6 mL low-binding flip-cap tubes for CUT&Tag experiments.
500,000 nuclei were used for each CUT&Tag experiment targeting a histone posttranslational modification, while 200,000 nuclei were used for ARID1A. Bio-Mag®Plus Concanavalin A coated magnetic beads (Bangs Laboratories) were equilibrated with binding buffer (20 mM K-HEPES pH7.9, 10 mM KCl, and 1 mM each CaCl2 and MnCl2). To each sample, 10 μL of activated beads were added and held at room temperature for 5 minutes with occasional gentle mixing. […]

[2] = tested on: Rasgrp1 mRNA; test: QPCR of Rasgrp1 in Arid1a^fl/fl organoids after GSK126; assay type: cell-based, mouse; conditions: Arid1a^fl/fl cells; GSK126 12.5 μM
[3] = tested on: RASGRP1 protein; test: RASGRP1 IF in Arid1a^fl/fl organoids after GSK126; assay type: cell-based, mouse; conditions: Arid1a^fl/fl cells treated with GSK126
Method: Organoids were fixed using 4% PFA for 2 hours at room temperature on a shaker followed by a 30-minute incubation on ice to achieve complete removal of EHS. Intact organoids were collected as a pellet after centrifugation at 1400 rpm for 5 min and washed with ddH2O. The pellet was further washed with 0.2% BSA and organoids were mixed with HistoGel™ (Epredia). The organoid and HistoGel™ suspension was centrifuged at 1400 rpm for 5 minutes and kept on ice for 30 minutes. The solidified HistoGel™ structure was stored at 4° C. until ready for processing and paraffin embedding. Organoid sections ([…]) were deparaffinized in CitriSolv™ (Fisher, 4355121) for 10 minutes and rehydrated using 100% (2×), 90% (2×) and 70% (2×) ethanol for 5 minutes each. Antigen retrieval was performed by preheating in sodium citrate buffer (pH 6.0) solution for 10 minutes at 121° C. in a pressure cooker. Organoid sections were blocked in 1% BSA solution for 1 hour followed by overnight incubation in primary antibody (anti-RASGRP1: Fisher) at 4° C. in a humidified chamber. Secondary antibody (Alexa Fluor® 594: Invitrogen) incubation was performed for 1 hour at room temperature. All slides were mounted using ProLong™ gold mounting media with DAPI (Fisher Scientific, P36935). […]

[4] = tested on: eEF2 phosphorylation; test: Immunoblot of phospho-eEF2 and total eEF2 in Arid1a^fl/fl organoids +/- GSK126; assay type: cell-based, mouse
Method: Cell lysates were prepared using RIPA buffer (Fisher) containing phosphatase inhibitor (Sigma) and protease inhibitor cocktail (Sigma). The lysates were incubated on ice for 30 minutes with periodic mixing by vortex and centrifuged at 13,000×g at 4° C. for 10 minutes. The supernatants were subjected to SDS-PAGE and transferred to a PDVF membrane (Bio-Rad). Membranes were blocked with 5% milk for 1 hour at room temperature. Primary antibodies were diluted in 5% milk and incubated overnight at 4° C. Blots were incubated with horse radish peroxidase- (HRP-) conjugated secondary antibodies (goat anti-rabbit IgG (Fisher) or goat anti-mouse IgG (Fisher)) in 5% milk for 1 hour at room temperature. West Pico (Fisher) was used to detect immunoreactive bands on the blot using the ChemiDoc Touch Imaging System (Bio-Rad). […]

[5] = molecular target: T2, eEF2K (Mus musculus, UniProt O08796); test: IHC of phospho-eEF2 (T56) in Arid1a^fl/fl mice after eEF2K inhibitor treatment; assay type: in vivo; conditions: A-484954 10 mg/kg IP daily for 15 days
T2 construct: from tissue; host or cells: bladder urothelium of Arid1a^fl/fl mice dosed in vivo
T2 sequence (O08796 1-724): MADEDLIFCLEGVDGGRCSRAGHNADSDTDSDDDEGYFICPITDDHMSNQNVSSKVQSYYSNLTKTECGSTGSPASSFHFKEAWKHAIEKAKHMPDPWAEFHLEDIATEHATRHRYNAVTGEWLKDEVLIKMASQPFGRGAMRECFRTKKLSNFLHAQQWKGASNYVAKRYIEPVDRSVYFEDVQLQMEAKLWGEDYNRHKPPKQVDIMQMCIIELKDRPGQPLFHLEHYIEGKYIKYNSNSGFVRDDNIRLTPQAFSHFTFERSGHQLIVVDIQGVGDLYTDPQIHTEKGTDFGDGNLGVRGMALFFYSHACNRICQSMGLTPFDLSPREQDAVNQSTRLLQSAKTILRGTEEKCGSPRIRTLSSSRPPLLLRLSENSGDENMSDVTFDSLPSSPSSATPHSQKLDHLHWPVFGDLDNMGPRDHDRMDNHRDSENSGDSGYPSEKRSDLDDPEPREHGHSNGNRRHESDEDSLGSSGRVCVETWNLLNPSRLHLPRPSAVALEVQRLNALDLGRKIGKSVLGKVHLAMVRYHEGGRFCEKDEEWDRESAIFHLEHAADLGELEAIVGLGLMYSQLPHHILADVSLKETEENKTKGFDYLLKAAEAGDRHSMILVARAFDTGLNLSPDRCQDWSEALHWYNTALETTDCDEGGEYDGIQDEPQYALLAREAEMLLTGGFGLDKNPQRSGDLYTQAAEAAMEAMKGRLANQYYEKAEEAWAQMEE
Method: (§1) Bladder samples were collected, fixed in 4% paraformaldehyde (PFA), dehydrated with ethanol, and embedded in paraffin wax. Paraffin blocks were sectioned (5 μm) using a rotary microtome and hematoxylin and eosin (H&E) stained. Immunohistochemistry (IHC) staining was performed after rehydrating the tissue. In brief, antigen retrieval was performed by preheating in sodium citrate buffer (pH 6.0 or pH 9) solution for 7-30 minutes at 95° C.-125° C. in a pressure cooker. Hydrogen peroxidase (Vector Laboratories) treatment was done for 5 minutes to quench endogenous peroxides. Tissue was blocked in 1% BSA for 1 hour. Primary antibodies were applied and incubated at room temperature for 1 hour in a humidified chamber followed by secondary antibody (EnVision™ system HRP-labeled polymer, Dako, K4003). Color development was achieved by applying 3,3′-diaminobenzidine (DAB) solution (Agilent Technology) for 2 to 5 minutes, depending on the primary antibody. The sections were counterstained with hematoxylin (Agilent Technology), washed, and cover-slipped using aqueous-based mounting medium (Agilent Technology). All IHC slides were scanned using Aperio ScanScope AT Turbo (Leica Biosystems). […]

[6] = tested on: protein synthesis in Arid1a^fl/fl bladders; test: In vivo puromycin incorporation assay in Arid1a^fl/fl mice after eEF2K inhibitor treatment; parameters: species or system mouse; conditions: A-484954 10 mg/kg IP daily for 15 days
Method: Immunofluorescent (IF) staining was performed in the following manner. Antigen retrieval was conducted by preheating in sodium citrate buffer (pH 6.0) for 30 minutes at 95° C. in a pressure cooker. Tissue was blocked in 1% BSA solution for 2 hours or in M.O.M® blocking reagent (Vector Laboratories) for 1 hour at room temperature, followed by blocking in 1% BSA solution for 2 hours. Primary antibodies were applied overnight at 4° C. in a humidified chamber, and secondary antibodies (Alexa Fluor® 594; Alexa Fluor® 488; or Alexa Fluor® 647 (Invitrogen)) were applied for 1 hour at room temperature. All IF slides were mounted using ProLong™ gold mounting media with DAPI (Fisher Scientific, P36935). IF slides were scanned using an Aperio Scanscope FL (Leica Biosystems). The following primary antibodies were used for IF study: anti-Cytokeratin 5 (Biolegend Inc), anti-puromycin (EMD Millipore), anti-p-eEF2K (S366) (Cell Signaling Technology), anti-ARID1A (Sigma), or anti-Cytokeratin 5 (Abcam). Image analysis was done using semiautomated image analysis software (HALO, Indica Labs).
For the in vivo puromycin incorporation assay, mice were injected i.p. with 200 μL of 2.5 mM puromycin (Fisher) and euthanized after 1 hour. For in vitro puromycin incorporation assay, cells were treated with 1 μM puromycin for 30 minutes at 37° C. […]

[7] = tested on: Arid1a^fl/fl mouse urothelium; test: γH2AX and CC3 staining of Arid1a^fl/fl urothelium, A-484954 pretreatment before 9-day BBN; assay type: in vivo; conditions: Arid1a^fl/fl mice pretreated with A-484954 before a 9-day course of BBN
Method: as §1

T1 sequence (Q61188 whole entry): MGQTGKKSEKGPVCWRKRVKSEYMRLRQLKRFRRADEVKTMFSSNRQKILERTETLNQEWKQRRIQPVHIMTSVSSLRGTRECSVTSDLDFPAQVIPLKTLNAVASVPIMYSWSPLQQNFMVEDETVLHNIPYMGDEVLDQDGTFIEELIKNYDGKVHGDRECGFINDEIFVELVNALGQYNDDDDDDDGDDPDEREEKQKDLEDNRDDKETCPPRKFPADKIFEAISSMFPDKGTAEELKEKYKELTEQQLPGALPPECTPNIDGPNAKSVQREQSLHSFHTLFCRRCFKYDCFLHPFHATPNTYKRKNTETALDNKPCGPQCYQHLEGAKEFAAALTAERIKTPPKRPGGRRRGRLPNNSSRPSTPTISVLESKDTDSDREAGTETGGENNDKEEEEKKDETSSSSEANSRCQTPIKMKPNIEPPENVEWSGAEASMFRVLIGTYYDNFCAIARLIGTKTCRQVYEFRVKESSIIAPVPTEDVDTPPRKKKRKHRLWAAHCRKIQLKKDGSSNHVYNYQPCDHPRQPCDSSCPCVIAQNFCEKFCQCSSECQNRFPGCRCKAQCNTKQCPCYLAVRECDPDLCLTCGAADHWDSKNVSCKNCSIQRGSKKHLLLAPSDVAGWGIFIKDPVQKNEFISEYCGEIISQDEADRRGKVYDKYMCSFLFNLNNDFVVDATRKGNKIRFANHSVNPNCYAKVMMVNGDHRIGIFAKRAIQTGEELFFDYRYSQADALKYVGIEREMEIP
T1 sequence (Q921E6 whole entry partner): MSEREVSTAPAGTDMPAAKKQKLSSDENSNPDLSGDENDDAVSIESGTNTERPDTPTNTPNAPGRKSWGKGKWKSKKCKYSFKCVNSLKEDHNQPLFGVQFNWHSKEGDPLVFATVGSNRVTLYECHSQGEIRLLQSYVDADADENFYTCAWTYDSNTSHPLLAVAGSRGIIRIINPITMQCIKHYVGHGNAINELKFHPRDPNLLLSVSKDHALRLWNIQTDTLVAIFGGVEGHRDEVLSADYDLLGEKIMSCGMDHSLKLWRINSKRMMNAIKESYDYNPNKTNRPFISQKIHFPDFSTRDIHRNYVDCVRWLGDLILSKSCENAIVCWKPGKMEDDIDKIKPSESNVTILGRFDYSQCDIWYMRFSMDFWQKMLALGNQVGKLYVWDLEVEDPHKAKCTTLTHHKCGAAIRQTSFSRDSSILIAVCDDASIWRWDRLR
T1 sequence (Q80U70 whole entry partner): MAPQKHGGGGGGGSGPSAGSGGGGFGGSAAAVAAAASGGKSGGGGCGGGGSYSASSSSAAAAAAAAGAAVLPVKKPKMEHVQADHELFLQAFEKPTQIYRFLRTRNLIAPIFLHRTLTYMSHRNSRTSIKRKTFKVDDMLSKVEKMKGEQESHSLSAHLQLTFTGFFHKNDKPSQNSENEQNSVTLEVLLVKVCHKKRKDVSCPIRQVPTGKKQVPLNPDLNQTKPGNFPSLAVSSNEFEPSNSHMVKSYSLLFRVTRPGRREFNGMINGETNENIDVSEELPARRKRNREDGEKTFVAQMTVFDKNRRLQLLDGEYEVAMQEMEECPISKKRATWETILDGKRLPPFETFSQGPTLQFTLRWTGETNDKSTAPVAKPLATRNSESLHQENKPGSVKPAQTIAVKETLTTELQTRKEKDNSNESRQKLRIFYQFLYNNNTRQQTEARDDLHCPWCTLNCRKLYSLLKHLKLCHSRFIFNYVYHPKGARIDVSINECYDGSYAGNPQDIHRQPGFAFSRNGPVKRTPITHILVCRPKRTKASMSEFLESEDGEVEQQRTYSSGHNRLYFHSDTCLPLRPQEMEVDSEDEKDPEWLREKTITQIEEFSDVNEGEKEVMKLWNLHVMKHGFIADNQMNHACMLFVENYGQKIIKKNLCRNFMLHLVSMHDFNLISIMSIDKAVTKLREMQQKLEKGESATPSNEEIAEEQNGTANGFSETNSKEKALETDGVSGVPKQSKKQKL
T1 sequence (Q60972 whole entry partner): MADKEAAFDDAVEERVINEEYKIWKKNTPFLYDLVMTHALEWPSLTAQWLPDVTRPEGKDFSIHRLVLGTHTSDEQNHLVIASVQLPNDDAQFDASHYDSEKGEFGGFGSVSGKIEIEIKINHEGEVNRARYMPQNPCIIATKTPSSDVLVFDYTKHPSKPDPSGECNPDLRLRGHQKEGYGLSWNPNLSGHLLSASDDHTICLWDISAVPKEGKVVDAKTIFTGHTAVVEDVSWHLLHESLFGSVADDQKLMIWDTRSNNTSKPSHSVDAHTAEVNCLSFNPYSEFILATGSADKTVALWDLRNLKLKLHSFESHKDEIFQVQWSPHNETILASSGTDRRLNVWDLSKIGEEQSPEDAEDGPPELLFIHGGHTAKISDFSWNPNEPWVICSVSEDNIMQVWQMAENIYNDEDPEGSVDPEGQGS

SMILES | H3K27me3 on the Rasgrp1 promoter [1] | Rasgrp1 mRNA levels [2] | RASGRP1 protein levels [3] | eEF2 phosphorylation [4] | eEF2 phosphorylation (T56) [5] | protein synthesis (puromycin incorporation) [6] | DNA damage (γH2AX) [7] | apoptosis (CC3) [7]
CC[C@H](C)n1cc(C)c2c(C(=O)NCc3c(C)cc(C)[nH]c3=O)cc(-c3ccc(N4CCNCC4)nc3)cc21 [GSK126] | decreased H3K27me3 | restored | restored | decrease in eEF2 phosphorylation | – | – | – | –
CCn1c(=O)c2cc(C(N)=O)c(N)nc2n(C2CC2)c1=O [A-484954] | – | – | – | – | attenuation of eEF2 phosphorylation | restoration of protein synthesis | markedly decreased | markedly decreased
